In test [1] the target is T1, Sphingosine 1-phosphate receptor 5 (Homo sapiens, UniProt Q9H228). Description: Agonist activity at recombinant human S1PR5 expressed in CHO cell membranes assessed as [35S]GTP-gammaS binding measured after 1.5 hrs by TopCount scintillation counting method. In general terms: GTPγS resists hydrolysis and so accumulates on activated G proteins.
Test [2] addresses T1, Sphingosine 1-phosphate receptor 5. Description: Agonist activity at recombinant human S1PR5 expressed in CHO cell membranes assessed as [35S]GTP-gammaS binding measured after 1.5 hrs by TopCount scintillation counting method relative to S1P.
Test [3] addresses T2, Sphingosine 1-phosphate receptor 4 (Homo sapiens, UniProt O95977).
T2 sequence (O95977 whole entry): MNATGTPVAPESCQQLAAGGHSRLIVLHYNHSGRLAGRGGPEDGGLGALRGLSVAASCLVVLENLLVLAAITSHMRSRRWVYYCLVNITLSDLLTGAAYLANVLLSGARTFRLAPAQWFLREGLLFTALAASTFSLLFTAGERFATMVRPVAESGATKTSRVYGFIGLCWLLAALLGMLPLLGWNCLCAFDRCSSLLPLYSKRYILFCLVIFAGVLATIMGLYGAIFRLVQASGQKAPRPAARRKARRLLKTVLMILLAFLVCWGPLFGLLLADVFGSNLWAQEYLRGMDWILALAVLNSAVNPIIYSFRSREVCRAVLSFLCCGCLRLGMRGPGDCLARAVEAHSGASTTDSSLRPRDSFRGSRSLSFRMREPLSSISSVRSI
Nature of the test: Agonist activity at recombinant human S1PR4 expressed in CHO cell membranes assessed as [35S]GTP-gammaS binding measured after 1.5 hrs by TopCount scintillation counting method.

By EC50 is commonly meant the concentration giving half of the maximal effect.

Structures are written as SMILES.

T1 sequence (Q9H228 whole entry): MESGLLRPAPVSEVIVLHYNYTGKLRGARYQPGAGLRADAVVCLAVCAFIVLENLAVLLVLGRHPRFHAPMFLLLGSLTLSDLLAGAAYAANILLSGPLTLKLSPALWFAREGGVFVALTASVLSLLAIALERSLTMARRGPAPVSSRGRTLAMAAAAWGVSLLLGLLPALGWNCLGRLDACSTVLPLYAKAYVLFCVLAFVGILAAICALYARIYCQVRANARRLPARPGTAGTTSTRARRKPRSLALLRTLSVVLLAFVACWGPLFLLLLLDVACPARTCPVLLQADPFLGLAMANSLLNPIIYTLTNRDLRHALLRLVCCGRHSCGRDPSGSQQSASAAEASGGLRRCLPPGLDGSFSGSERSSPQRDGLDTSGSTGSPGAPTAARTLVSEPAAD

As to `O=C(O)Cc1cccc(NCc2cc3cccc(-c4ccc5ccccc5c4)c3s2)c1`, the EC50 in test [1] came out at 1.67 µM; in test [3] it was 0.816 µM. Moreover, the Efficacy in test [2] worked out at 22%.
The like results for `O=C(O)CCCNCc1cc2cccc(-c3cccc(C(F)(F)F)c3)c2s1` were, in that order, 3.07 µM, 0.693 µM and 39%.
Turning to `O=C(O)CCCNCc1cc2cccc(-c3ccc(-c4ccccc4)cc3)c2s1`, the EC50 amounted to 6.45 µM in test [1] and 2.06 µM in test [3]. The Efficacy in test [2] turned out to be 10%.
Regarding `O=C(O)CNCc1cc2cccc(-c3ccc4ccccc4c3)c2s1`, the results for the EC50 in test [1] and in test [3] were 0.272 µM and 1.48 µM, respectively. The Efficacy in test [2] was 32%.
Taken in the same sequence, the figures for `CCc1ccccc1-c1cccc2cc(CNc3cccc(CC(=O)O)c3)sc12` were 3.97 µM, 1.19 µM and 36%.
Taken in the same sequence, the figures for `CC(C)(C)c1ccc(-c2cccc3cc(CNCCCC(=O)O)sc23)cc1` were 4.69 µM, 5.07 µM and 26%.
Taken in the same sequence, the figures for `O=C(O)CCNCc1cc2cc(-c3ccc4ccccc4c3)ccc2s1` were 0.025 µM, 0.038 µM and 78%.
Take `CCc1ccccc1-c1cccc2cc(CNCC(=O)O)sc12`: the EC50 in test [1] and in test [3] was more than 100 µM throughout.
As for `O=C(O)C1CN(Cc2cc3cccc(-c4ccc5ccccc5c4)c3s2)C1`, the EC50 was 0.506 µM in test [1] and more than 100 µM in test [3]. In test [2], the Efficacy worked out at 13%.
`Cc1ccccc1-c1cccc2cc(CNCCCC(=O)O)sc12`: the values for the EC50 in test [1] and in test [3] were 3.54 µM and 13.5 µM, respectively. Besides, the Efficacy in test [2] amounted to 7%.
The like results for `O=C(O)CCCNCc1cc2cccc(-c3ccc(C(F)(F)F)cc3)c2s1` were, in that order, 0.552 µM, 1.9 µM and 15%.
For `O=C(O)c1ccc(CNCc2cc3cc(-c4ccc5ccccc5c4)ccc3s2)cc1`, the EC50 in test [1] and in test [3] was more than 100 µM in each case.
For `CCc1ccccc1-c1cccc2sc(CNCCCCC(=O)O)cc12`, the EC50 in test [1] was more than 100 µM; in test [3], 11.1 µM.
The like results for `CCc1ccccc1-c1cccc2cc(CNCCCC(=O)O)sc12` were, in that order, more than 100 µM and more than 100 µM.
Regarding `O=C(O)C1CN(Cc2cc3c(-c4ccc5ccccc5c4)cccc3s2)C1`, the figures for the EC50 in test [1] and in test [3] were 0.175 µM and 1.01 µM, respectively. Also, the Efficacy in test [2] worked out at 14%.
On to `O=C(O)CCCNCc1cc2cccc(-c3cccc(-c4ccccc4)c3)c2s1`, for which the EC50 in test [1] amounted to 0.049 µM; in test [3], 0.331 µM. Further, the Efficacy in test [2] was 18%.
Taken in the same sequence, the figures for `Cc1ccc(-c2cccc3cc(CNCCCC(=O)O)sc23)cc1` were 2.81 µM, 19.9 µM and 43%.
Taken in the same sequence, the figures for `CCc1ccccc1-c1cccc2sc(CNc3ccc(CC(=O)O)cc3)cc12` were 4.77 µM, 2.57 µM and 9%.
Take `O=C(O)c1ccc(CNCc2cc3cccc(-c4ccc5ccccc5c4)c3s2)cc1`: the concentration for a half-maximal effect (EC50) in test [1] was 4.51 µM; in test [3], more than 100 µM. In addition, the Efficacy in test [2] is 23%.
Taken in the same sequence, the figures for `NC(CNCc1cc2cc(-c3ccc4ccccc4c3)ccc2s1)C(=O)O` (stereo not drawn) were 0.728 µM, 0.541 µM and 69%.
As to `CCc1ccccc1-c1cccc2sc(CNCC(N)C(=O)O)cc12` (stereo not drawn), the EC50 was more than 100 µM in test [1] and 57.6 µM in test [3].
On to `O=C(O)Cc1ccc(NCc2cc3c(-c4ccc5ccccc5c4)cccc3s2)cc1`, for which the EC50 in test [1] and in test [3] was more than 100 µM in each case.
Take `O=C(O)CCCCNCc1cc2cccc(-c3ccc4ccccc4c3)c2s1`: the EC50 stood at 0.412 µM in test [1] and 0.41 µM in test [3]. Moreover, in test [2], the Efficacy is 37%.
The like results for `CCc1ccccc1-c1cccc2cc(CNCC(C)C(=O)O)sc12` (stereo not drawn) were, in that order, 4.22 µM, more than 100 µM and 10%.
Taken in the same sequence, the figures for `CC(CNCc1cc2cc(-c3ccc4ccccc4c3)ccc2s1)C(=O)O` (stereo not drawn) were 0.232 µM, 0.115 µM and 77%.
For `CCc1ccccc1-c1cccc2sc(CN3CC(C(=O)O)C3)cc12`, the EC50 was 21.2 µM in test [1] and more than 100 µM in test [3]. Moreover, the Efficacy in test [2] worked out at 10%.
For the molecule `NC(CNCc1cc2cccc(-c3ccc4ccccc4c3)c2s1)C(=O)O` (stereo not drawn), the results for the EC50 in test [1] and in test [3] were 1.07 µM and 0.694 µM, respectively. Besides, the Efficacy in test [2] turned out to be 35%.
For the molecule `CCc1ccccc1-c1cccc2sc(CNCC(C)C(=O)O)cc12` (stereo not drawn), the EC50 in test [1] was more than 100 µM; in test [3] it was 10.3 µM.
Take `O=C(O)CCNCc1cc2cccc(-c3ccc4ccccc4c3)c2s1`: the EC50 in test [1] stood at 0.28 µM; in test [3], 0.187 µM. Besides, the Efficacy in test [2] turned out to be 36%.
For the molecule `O=C(O)CCCNCc1cc2cccc(-c3cccc4ccccc34)c2s1`, the EC50 in test [1] is 2.32 µM; in test [3], 1.98 µM. Besides, the Efficacy in test [2] turned out to be 25%.
`CCc1ccccc1-c1cccc2sc(CNc3cccc(CC(=O)O)c3)cc12`: the figures for the EC50 in test [1] and in test [3] were more than 100 µM and 0.47 µM, respectively.
Take `O=C(O)Cc1ccc(NCc2cc3cccc(-c4ccc5ccccc5c4)c3s2)cc1`: the EC50 was 4.02 µM in test [1] and 1.43 µM in test [3]. In addition, the Efficacy in test [2] was determined as 32%.
Turning to `COc1ccc2cc(-c3cccc4cc(CNCCCC(=O)O)sc34)ccc2c1`, the EC50 was more than 100 µM in test [1] and 1.93 µM in test [3].
Take `CCc1ccccc1-c1cccc2cc(CNCC(N)C(=O)O)sc12` (stereo not drawn): the EC50 in test [1] came out at 1.56 µM; in test [3], 3.1 µM. The Efficacy in test [2] stood at 25%.
The like results for `CCc1ccccc1-c1cccc2cc(CNCCCCC(=O)O)sc12` were, in that order, 2.49 µM, more than 100 µM and 16%.
As to `CCc1ccccc1-c1cccc2cc(CNc3ccc(CC(=O)O)cc3)sc12`, the figures for the EC50 in test [1] and in test [3] were 2.1 µM and 3.41 µM, respectively. Moreover, in test [2], the Efficacy was found to be 20%.
For the molecule `CCc1ccccc1-c1cccc2sc(CNCCC(=O)O)cc12`, the EC50 in test [1] and in test [3] was more than 100 µM in each case.
Turning to `CCc1ccccc1-c1cccc2sc(CNCCCC(=O)O)cc12`, the EC50 in test [1] is more than 100 µM; in test [3] it was 18.3 µM.
Consider `NC(CNCc1cc2c(-c3ccc4ccccc4c3)cccc2s1)C(=O)O` (stereo not drawn), for which the EC50 in test [1] amounted to 0.329 µM; in test [3], 1.1 µM. Also, in test [2], the Efficacy was determined as 34%.
Taken in the same sequence, the figures for `O=C(O)CNCc1cc2cc(-c3ccc4ccccc4c3)ccc2s1` were 0.35 µM, 0.35 µM and 63%.
The like results for `O=C(O)CCCCNCc1cc2cc(-c3ccc4ccccc4c3)ccc2s1` were, in that order, 0.709 µM, 0.724 µM and 54%.
As for `O=C(O)Cc1ccc(NCc2cc3cc(-c4ccc5ccccc5c4)ccc3s2)cc1`, the EC50 in test [1] and in test [3] was more than 100 µM throughout.
As for `CCc1ccccc1-c1cccc2cc(CN3CC(C(=O)O)C3)sc12`, the EC50 in test [1] and in test [3] was more than 100 µM throughout.
Consider `CCc1ccccc1-c1cccc2sc(CNCC(=O)O)cc12`, for which the EC50 in test [1] and in test [3] was more than 100 µM throughout.
For `Cc1cccc(-c2cccc3cc(CNCCCC(=O)O)sc23)c1`, the figures for the EC50 in test [1] and in test [3] were 10.3 µM and 9.25 µM, respectively. Besides, in test [2], the Efficacy was found to be 25%.
With `CCc1ccccc1-c1cccc2sc(CNCc3ccc(C(=O)O)cc3)cc12`, the figures for the concentration giving a half-maximal response (EC50) in test [1] and in test [3] were 6.7 µM and more than 100 µM, respectively. In test [2], the Efficacy amounted to 11%.
The like results for `O=C(O)CCCNCc1cc2cc(-c3ccc4ccccc4c3)ccc2s1` were, in that order, 0.143 µM, 0.165 µM and 65%.
Taken in the same sequence, the figures for `O=C(O)Cc1cccc(NCc2cc3cc(-c4ccc5ccccc5c4)ccc3s2)c1` were 0.769 µM, more than 100 µM and 12%.
Taken in the same sequence, the figures for `O=C(O)CCCNCc1cc2cccc(-c3ccc4c(c3)OCO4)c2s1` were 3.13 µM, 3.92 µM and 26%.
Regarding `CCc1ccccc1-c1cccc2cc(CNCCC(=O)O)sc12`, the EC50 in test [1] was 2.59 µM; in test [3], more than 100 µM. In addition, the Efficacy in test [2] was found to be 15%.
Turning to `O=C(O)Cc1cccc(NCc2cc3c(-c4ccc5ccccc5c4)cccc3s2)c1`, in test [1], the concentration for a half-maximal effect (EC50) was 2.14 µM. The Efficacy in test [2] came out at 23%.
With `CC(CNCc1cc2cccc(-c3ccc4ccccc4c3)c2s1)C(=O)O` (stereo not drawn), the results for the EC50 in test [1] and in test [3] were 0.887 µM and 1.02 µM, respectively. The Efficacy in test [2] is 32%.
For the molecule `CCc1ccccc1-c1cccc2cc(CNCc3ccc(C(=O)O)cc3)sc12`, the EC50 in test [1] and in test [3] was more than 100 µM in each case.

(Values after ChEMBL document CHEMBL3875189, “A benzo[b]thiophene-based selective type 4 S1P receptor agonist” (Bioorg Med Chem Lett, 2017).)
